Measured values from publication PMC9606572, “Development of an innovative in vivo model of PJI treated with DAIR” (Frontiers in Medicine, 2022).
≈ marks a conversion by molar mass, not a printed value.

Legend:
[1] = Renal tolerance of vancomycin regimen (serum creatinine); type: in vivo, New Zealand White rabbits
Procedure: Creatinine serum concentrations were measured in group A animals using a Fuji Dri-Chem analyzer (Fujifilm Corporation, Tokyo, Japan) with CRE-PIII slides, as per the manufacturer’s instructions.

[2] = system: MRSA strain ATCC 33591; type: in vivo, New Zealand White rabbits; settings: surgical debridement at day 7 followed by 50 mg/kg IV vancomycin twice a day for 7 days, N = 5
Excerpt: Following general anesthesia, the animals were installed in a Class II biosafety cabinet. The operated leg was disinfected twice with 2% chlorhexidine gluconate alcohol solution (Qualiphar, Bornem, Belgium) and the leg was sterile draped. The joint was approached through a medial parapatellar incision. The medial meniscus was resected and 5 mm of the medial tibial plateau was removed using a high-speed burr. The cut height was confirmed using a spacer block. The bone surface was then further prepared using a custom tibial punch. After irrigation of the joint space with sterile saline, the final implants were impacted. The joint was then further irrigated with sterile saline. The joint capsule, subcutaneous tissues, and skin were closed separately with running sutures using a 3/0 polyester thread. The joints of groups B and C animals were inoculated by intra-articular injection of 100 μl of a 6.5 log10 CFU/ml MRSA suspension after the closure of the subcutaneous tissues. […] The wounds were then covered using an antiseptic spray and dressed.
Animals of groups C were operated on 1 week after the initial surgery. Following anesthesia, the operated leg was disinfected twice with 2% chlorhexidine gluconate alcohol solution and the leg was draped. The initial approach was re-used. Pus samples were collected immediately after the capsule was breached and stored on ice until analyzed. […]

[3] = system: Methicillin-Resistant Staphylococcus aureus strain ATCC 33591; settings: MRSA ATCC 33591; determined previously; cited from earlier work
Procedure: The Methicillin-Resistant Staphylococcus aureus strain ATCC 33591, previously used in our laboratory for biofilms models, was used. […] Bacteria were grown overnight on tryptic soy agar (TSA) plates from frozen stock. Some colonies were then suspended in sterile PBS, adjusted to an OD620 nm of 0.5 (∼8 log10 CFU), and diluted 1:10 in PBS. The bacterial suspension was stored at 4°C until inoculation (1.5–2 h). Serial dilutions of the bacterial inoculum were plated on TSA to confirm the bacterial inoculum.

[4] = Vancomycin serum pharmacokinetics and therapeutic monitoring in rabbits; settings: 50 mg/kg IV every 12 h, Roche VANC3 assay

In the case of CN[C@H](CC(C)C)C(=O)N[C@H]1C(=O)N[C@@H](CC(N)=O)C(=O)N[C@H]2C(=O)N[C@H]3C(=O)N[C@H](C(=O)N[C@H](C(=O)O)c4cc(O)cc(O)c4-c4cc3ccc4O)[C@H](O)c3ccc(c(Cl)c3)Oc3cc2cc(c3O[C@@H]2O[C@H](CO)[C@@H](O)[C@H](O)[C@H]2O[C@H]2C[C@](C)(N)[C@H](O)[C@H](C)O2)Oc2ccc(cc2Cl)[C@H]1O [vancomycin, Vancomycin], the renal toxicity ([1]; NZW rabbits, 50 mg/kg IV vancomycin twice a day) is reported as “No renal toxicity was observed”, the “serum creatinine concentrations throughout the experiment” value ([1]; group A NZW rabbits, 50 mg/kg IV vancomycin twice a day for 7 days, Fuji Dri-Chem analyzer) is reported as “stable” and the “bacterial counts in all samples (bone, pus, implant) except the joint capsule, group C versus group B” value ([2]; 5.5 log10 CFU MRSA inoculum, p < 0.0001) is reported as “significantly reduced”. For the same compound, the “mean difference in CFU counts in capsule samples, group C versus group B” value ([2]; not statistically significant, p = 0.35) was 0.74 log10 CFU/g, the MBEC [3] was greater than 1024 µg/mL and the MIC [3] was 1 µg/mL (≈ 0.69 µM). For the same compound, the “vancomycin serum concentration 12 h after the injections” value ([4]; group A NZW rabbits) was roughly 0 µg/mL and the “AUC0–12 h following the first vancomycin injection” value ([4]; group A non-infected NZW rabbits, 1st injection, trapezoid rule, mean, N = 5, SD 15.79) was 213.0 µg·h/mL.
